Experimental data taken from patent publication US9376369B2, “Anti-cholesterolemic compounds and methods of use” (priority 2006, dated 2016).

Legend:
[1] = test system: human aortic smooth muscle cells; assay: Measurement of the level (mass) of cholesterol in cells; format: cell-based; settings: active fractions 5 μg/ml
Experimental: FIG. 9 is a graph showing the effect of active fractions from EO on cholesterol level in human ASMC. Cells were incubated with active fractions (5 μg/ml) and cholesterol mass was determined.
Following treatment cells were extracted with hexane-isopropanol 3:2 by volume as described above. The pooled extracts were dried in a stream of nitrogen and subjected to measurement of total cholesterol mass using a cholesterol kit (WAKO chemicals, VA) with cholesterol as the standard. The data was expressed as μg cholesterol per mg protein.

[2] = test system: human aortic smooth muscle cells; assay: Cholesterol biosynthesis ([14C]acetate incorporation) in cultured cells with ox-LDL; format: cell-based; settings: for hypocholesterolemic activity: purified compounds isolated from EO, cell-based bioassay
Experimental: Cells were incubated with aqueous extracts of O. sanctum (JH-1), EO (JH-2), W. somnifera (JH-3) and EuMil (JH-4) at concentration 500 μg/ml in medium supplemented with 100 μg/ml oxidized LDL. Cells incubated with 100 μg/ml ox-LDL served as a control. [14C] acetate (2 μCi/ml) was added and incorporation of radioactivity into cholesterol and cholesteryl esters was measured after 24 h of incubation in standard cell culture conditions. Lovastatin (10 μM) plus ox-LDL served as a positive control.
H-ASMC (×10^5) were seeded in plastic 6-well trays and grown in smooth muscle cells medium-2 (Cambrex). Incubation was pursued in a water-jacketed incubator with 5% CO2 and 95% air. After the cells reached confluence medium was replaced by plain serum-free medium. Following incubation for 24 h fresh medium, 100 μg/ml ox-LDL and various herbal fractions solubilized in 12.5% DMSO were added. Cells that were incubated with lovastatin (10 μM) served as a positive control in all experiments.
Cells were incubated with and without ox-LDL and EuMil/ingredients and [14C] acetate ([…], 24 h). Next, medium was removed; the monolayers were washed three times with PBS. Cells were extracted with hexane:isopropanol (3:2 by volume, 2×3 ml) at room temperature. The extracts were pooled in glass tubes and total lipid extract dried in nitrogen atmosphere. 1N NaOH (1 ml) was added to each tube to solubilize proteins and the incubated overnight in open air. Next, water (2 ml) was added to the air dried tubes, the contents were mixed and utilized for protein measurement using BCA protein assay kit (Pierce, Rockford, Ill.)
The total lipid extracts were dried in stream of nitrogen, re-suspended in chloroform-methanol (2:1 by volume) and applied on a HPTLC silica gel plate. Standard solutions of cholesterol, monolein, diolein, triolein, fatty acid and cholesteryl oleate (50 μg each) also were applied to the plate. The plates were developed in heptane-ether-acetic acid (85:15:1 by volume). Following development, the plates were dried in air and exposed to an X-ray film for 2-3 days at […]. After the films were developed, the HPTLC plates were immersed in iodine vapors to identify the migration of individual neutral lipid molecular species. Gel areas, corresponding to cholesterol were scraped and radioactivity was measured using Beckman liquid scintillation spectrometer. The data was expressed as counts per mg protein. The incorporation of radioactivity in cells incubated with oxidized LDL was considered as 100% (control). All experimental values in cells treated with EuMil/ingredients plus oxidized LDL were expressed as a percentage of the control. All assays were conducted in triplicate.

[3] = Behaviour of mucic acid gallates in aqueous solution; format: physicochemical; settings: as previously reported [22]
Excerpt: It should be noted that the mucic acid gallates derivatives 7 and 9 equilibrate in aqueous solutions as previously reported, while 1-methyl mucate-2-gallate (8) is not an artifact of the isolation procedure as it could be isolated when only ethanol, water and acetonitrile were used.

[4] = test system: human aortic smooth muscle cells; assay: Cholesterol uptake ([3H]cholesterol); format: cell-based; settings: [3H]cholesterol 5 μCi/ml, serum-free medium, 24 h
Experimental: FIG. 11 is a graph showing the effect of active compounds from EO on uptake of cholesterol in human aortic smooth muscle cells. Confluent culture of cells grown in 96 well plates was incubated in serum-free medium with [3H]cholesterol (5 μCi/ml) with and without active fractions. After 24 h the uptake of cholesterol was measured by scintillation spectrometry.
Confluent culture of human aortic smooth muscle cells were pre-incubated in serum-free DMEM for 24 h. Next, fresh medium and [3H]cholesterol (5 μCi/ml) plus various herbal compounds were added. Following incubation for 24 h and 48 h, [3H]cholesterol taken up by cell was measured by solubilization in 1 M NaOH and radioactivity measured.

[5] = test system: H-ASMC; assay: Cell proliferation ([3H]thymidine incorporation); format: cell-based, human
Experimental: Following incubation for 18 h with and without ox-LDL and EuMil/ingredients and lovastatin [3H]thymidine ([…]) was added in 96 well dishes and incubation continued for 6 h at 37° C. Next, the cells were washed and the incorporation of [3H]thymidine into DNA was measured employing scintillation spectrometry. The data was calculated as dpm/well. All experimental values were expressed as a percentage of the control values (cells incubated with ox-LDL alone).

[6] = test system: F344 rats; settings: both sexes, 5% GA in diet, week 1 to end of 13 weeks; cited from earlier work
[7] = test system: human aortic smooth muscle cells; assay: Cholesterol efflux ([3H]cholesterol); format: cell-based; settings: 24 h with fractions after [3H]cholesterol labelling
[8] = 10 μM plus 100 μg/ml ox-LDL, 24 h, ox-LDL alone = control

Row | Compound | cellular mass / level of cholesterol in ASMC [1] | hypocholesterolemic activity [2] | also measured
1 | O=C(OC[C@H]1OC(OC(=O)c2cc(O)c(O)c(O)c2)[C@H](O)[C@@H](O)[C@@H]1O)c1cc(O)c(O)c(O)c1 (some centres unmarked) [Compound 6, glucose-1,6-digallate (DGG16)] | effective in decreasing cholesterol level | hypocholesterolemic active compounds | 
2 | COC(=O)C(OC(=O)c1cc(O)c(O)c(O)c1)C(O)C(O)C(O)C(=O)O (centres unmarked) [Compound 8, 1-methyl mucate-2-gallate] | effective in decreasing cholesterol level | hypocholesterolemic active compounds | 
3 | O=C(O[C@@H]1O[C@H](CO)[C@@H](O)[C@H](O)[C@H]1O)c1cc(O)c(O)c(O)c1 [Compound 4, glucose-1-gallate (GG1)] |  | hypocholesterolemic active compounds | 
4 | mucic acid-2-gallate [Compound 7] | effective in decreasing cholesterol level | hypocholesterolemic active compounds | stability in aqueous solutions [3]: equilibrate
5 | CC[C@H](C)C(=O)O[C@H]1C[C@@H](C)C=C2C=C[C@H](C)[C@H](CC[C@@H]3C[C@@H](O)CC(=O)O3)[C@H]21 [Lovastatin, lovastatin, reference compound] |  |  | biosynthesis of cholesterol compared to control [2, 8]: ~20%; biosynthesis of cholesteryl esters compared to control [2, 8]: ~50%; inhibition of cholesterol uptake in H-ASMC [4]: not effective; effect on cell proliferation [5]: did not appear to inhibit
6 | glucose-6-gallate (GG6) [Compound 5] | effective in decreasing cholesterol level | hypocholesterolemic active compounds | 
7 | O=C(O)c1cc(O)c(O)c(O)c1 [Compound 1, gallic acid] |  | hypocholesterolemic active compounds | body weight gain versus untreated controls [6]: significantly lower; efflux of cholesterol from cultured H-ASMC [7]: effective; efflux of cholesterol from cultured H-ASMC ([7]; listed as gallate): very effective
8 | COC(=O)c1cc(O)c(O)c(O)c1 [Compound 2a, methyl gallate] |  | hypocholesterolemic active compounds | inhibition of cholesterol uptake in H-ASMC [4]: markedly inhibit; efflux of cholesterol from cultured H-ASMC [7]: very effective
9 | CCOC(=O)c1cc(O)c(O)c(O)c1 [Compound 2b, ethyl gallate] |  | hypocholesterolemic active compounds | 
10 | O=C(OCC(O)CO)c1cc(O)c(O)c(O)c1 (centres unmarked) [Compound 3, glycerol-1-gallate] |  | hypocholesterolemic active compounds | 
11 | O=C(OC(C(=O)O)C1OC(=O)C(O)C1O)c1cc(O)c(O)c(O)c1 (centres unmarked) [Compound 9, mucic acid 1,4-lactone 5-gallate] | effective in decreasing cholesterol level | hypocholesterolemic active compounds | stability in aqueous solutions [3]: equilibrate
